Experimental findings from patent US20240158418A1 (C4 Therapeutics, Inc., priority 2021, published 2024) are described below.

Some results are limits rather than exact numbers.

For one assay, the target named is T1, EGFR L858R-T790M (Homo sapiens, UniProt P00533, L858R/T790M).
T1 construct: NCI-H1975 (harboring EGFR heterozygous L858R-T790M mutations); host or cells: NCI-H1975
T1 sequence (P00533 25-1210 T790M/L858R): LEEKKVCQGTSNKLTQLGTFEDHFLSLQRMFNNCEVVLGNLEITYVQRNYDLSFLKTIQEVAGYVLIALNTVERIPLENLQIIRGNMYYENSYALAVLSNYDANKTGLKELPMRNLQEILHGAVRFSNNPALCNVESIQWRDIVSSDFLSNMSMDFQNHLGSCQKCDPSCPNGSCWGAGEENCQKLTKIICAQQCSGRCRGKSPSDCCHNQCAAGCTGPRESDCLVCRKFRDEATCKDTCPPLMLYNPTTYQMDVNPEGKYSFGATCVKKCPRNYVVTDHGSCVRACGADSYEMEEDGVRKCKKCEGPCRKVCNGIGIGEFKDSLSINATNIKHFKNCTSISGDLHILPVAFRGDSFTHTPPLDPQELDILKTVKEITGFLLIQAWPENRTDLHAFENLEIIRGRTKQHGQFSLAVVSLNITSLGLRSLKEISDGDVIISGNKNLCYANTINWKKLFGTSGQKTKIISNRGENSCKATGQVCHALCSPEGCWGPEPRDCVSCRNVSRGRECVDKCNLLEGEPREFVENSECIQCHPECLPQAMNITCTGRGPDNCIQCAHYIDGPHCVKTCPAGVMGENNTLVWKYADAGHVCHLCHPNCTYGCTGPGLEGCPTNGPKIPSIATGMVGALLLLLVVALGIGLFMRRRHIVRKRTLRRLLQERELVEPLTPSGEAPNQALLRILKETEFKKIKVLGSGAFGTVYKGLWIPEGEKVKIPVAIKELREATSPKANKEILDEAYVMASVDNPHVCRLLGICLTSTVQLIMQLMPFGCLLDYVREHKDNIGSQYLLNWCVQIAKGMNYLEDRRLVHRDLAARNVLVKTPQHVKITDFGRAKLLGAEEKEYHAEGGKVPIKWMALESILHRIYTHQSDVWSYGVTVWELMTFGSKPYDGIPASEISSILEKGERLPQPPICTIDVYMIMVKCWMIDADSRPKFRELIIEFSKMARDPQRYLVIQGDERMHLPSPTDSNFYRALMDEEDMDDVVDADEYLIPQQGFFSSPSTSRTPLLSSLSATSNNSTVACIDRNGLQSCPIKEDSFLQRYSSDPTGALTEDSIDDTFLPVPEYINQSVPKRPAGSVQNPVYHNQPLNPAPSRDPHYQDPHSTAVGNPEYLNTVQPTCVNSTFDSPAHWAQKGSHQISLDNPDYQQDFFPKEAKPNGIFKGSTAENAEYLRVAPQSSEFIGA
The assay can be described thus: EGFR degradation, Total EGFR (L858R-specific) HTRF, NCI-H1975. The assay is classed as cell-based. Particulars: Table 9A; NCI-H1975 cells, 6 hours, Total EGFR HTRF; read-out: H1975 EGFR DC50. An excerpt: NCI-H1975 (harboring EGFR heterozygous L858R-T790M mutations) and NCI-H3255 (harboring EGFR heterozygous L858R mutation) were purchased from ATCC and NCI, respectively. NCI-H1975+CS (harboring EGFR heterozygous L858R-T790M-C797S mutations) was generated using CRISPR technology to introduce the additional C797S mutation by Horizon Discovery. A431 (harboring EGFR wildtype) was purchased from ATCC. RPMI 1640 no-phenol red medium and fetal bovine serum (FBS) were purchased from Gibco (Grand Island, NY, USA). Cell culture flasks and 384-well microplates were acquired from VWR (Radnor, PA, USA). Phosphorylated (pY1068) EGFR and Total EGFR (using L858R-specific detection antibody and pan-EGFR antibody for EGFR mutant cell lines and EGFR wild-type cell lines, respectively) HTRF assay kits were purchased from Cisbio (Bedford, MA, USA).
Degradation of EGFR protein containing L858R mutation or wild-type was determined based on quantification of FRET signal using a Total EGFR (L858R-specific or pan-EGFR detecting) HTRF assay kit. Phospho-EGFR (pEGFR) inhibition was determined based on quantification of FRET signal using a pY1068 EGFR HTRF assay kit. In separate assay plates, test compounds were added to the 384-well plate from a top concentration of 10 μM with 11 points, half log titration in duplicates. For each assay, 12.5 uL of cells suspended in assay media (RPMI 1640 no-phenol red medium+10% FBS) at cell densities indicated for each cell line in Table 8 below were dispensed using a multi-channel pipette to 384-well low volume white HTRF microplates containing a duplicate concentration range of test compounds and DMSO controls. The plates were kept at 37° C. with 5% CO2 for 6 hours and then incubated with either phospho EGFR or Total EGFR HTRF detection antibodies according to the cell line and EGFR mutant being assayed. Cells treated in the absence of the test compound were the negative control. Positive control was set by wells containing all reagents but no cells. FRET signal was acquired on EnVision™ Multilabel Reader (PerkinElmer, Santa Clara, CA, USA). Compound concentration that achieves 50% degradation and inhibition was reported as DC50 and IC50, respectively.
On the technique in general: Time-resolved FRET reads energy transfer from a long-lived donor to a nearby acceptor.
On to `O=C1CCC(Nc2cccc(C3CCN(CC(=O)N4CCN(c5ccc(-c6cc(F)c7c(c6)C(=O)N(C(C(=O)Nc6nccs6)c6ncn8c6CCC8)C7)cc5)CC4)CC3)c2)C(=O)N1` (stereo not shown) [Compound 16, 2-(6,7-dihydro-5H-pyrrolo[1,2-c]imidazol-1-yl)-2-(6-(4-(4-(2-(4-(3-((2,6-dioxopiperidin-3-yl)amino)phenyl)piperidin-1-yl)acetyl)piperazin-1-yl)phenyl)-4-fluoro-1-oxoisoindolin-2-yl)-N-(thiazol-2-yl)acetamide], for which the DC50 was in the range of 50 to 150 nM.

For `O=C1CC[C@H](Nc2ccc(C3CCN(CC(=O)N4CCC(Oc5ccc(-c6cc(F)c7c(c6)C(=O)N(C(C(=O)Nc6nccs6)c6ncn8c6CCC8)C7)cc5)CC4)CC3)c(F)c2)C(=O)N1` (stereo partly drawn) [Compound 39, 2-(6,7-dihydro-5H-pyrrolo[1,2-c]imidazol-1-yl)-2-(6-(4-((1-(2-(4-(4-(((S)-2,6-dioxopiperidin-3-yl)amino)-2-fluorophenyl)piperidin-1-yl)acetyl)piperidin-4-yl)oxy)phenyl)-4-fluoro-1-oxoisoindolin-2-yl)-N-(thiazol-2-yl)acetamide], the DC50 was 50 to 150 nM.

For `O=C1CCC(Nc2ccc(C3CCN(CC(=O)N4CCC(Oc5ccc(-c6cc(F)c7c(c6)C(=O)N(C(C(=O)Nc6nccs6)c6ncn8c6CCC8)C7)cc5)CC4)CC3)cc2)C(=O)N1` (stereo not shown) [Compound 31, 2-(6,7-dihydro-5H-pyrrolo[1,2-c]imidazol-1-yl)-2-[6-[4-[[1-[2-[4-[4-[(2,6-dioxo-3-piperidyl)amino]phenyl]-1-piperidyl]acetyl]-4-piperidyl]oxy]phenyl]-4-fluoro-1-oxo-isoindolin-2-yl]-N-thiazol-2-yl-acetamide], the DC50 was less than 50 nM.

Still in this assay, the particulars now being: Table 9B; NCI-H1975 cells, 6 hours, Total EGFR HTRF; read-out: H1975 EGFR DC50.
Turning to `Cn1nc(N2CCC(=O)NC2=O)c2ccc(C3CCN(CC(=O)N4CC5(C4)CN(c4ccc(-c6cc(F)c7c(c6)C(=O)N(C(C(=O)Nc6nccs6)c6ncn8c6C[C@@H](F)C8)C7)cc4)C5)CC3(F)F)cc21` (stereo partly drawn) [Compound 116, 2-[6-[4-[2-[2-[4-[3-(2,4-dioxohexahydropyrimidin-1-yl)-1-methyl-indazol-6-yl]-3,3-difluoro-1-piperidyl]acetyl]-2,6-diazaspiro[3.3]heptan-6-yl]phenyl]-4-fluoro-1-oxo-isoindolin-2-yl]-2-[(6R)-6-fluoro-6,7-dihydro-5H-pyrrolo[1,2-c]imidazol-1-yl]-N-thiazol-2-yl-acetamide], the DC50 was less than 50 nM.

For `Cn1nc(N2CCC(=O)NC2=O)c2ccc(C3CCN(CC(=O)N4CCC5(C4)CN(c4ccc(-c6cc(F)c7c(c6)C(=O)N(C(C(=O)Nc6nccs6)c6ncn8c6CCC8)C7)cc4)C5)CC3(F)F)cc21` (stereo not shown) [Compound 113, 2-(6,7-dihydro-5H-pyrrolo[1,2-c]imidazol-1-yl)-2-(6-(4-(6-(2-(4-(3-(2,4-dioxotetrahydropyrimidin-1(2H)-yl)-1-methyl-1H-indazol-6-yl)-3,3-difluoropiperidin-1-yl)acetyl)-2,6-diazaspiro[3.4]octan-2-yl)phenyl)-4-fluoro-1-oxoisoindolin-2-yl)-N-(thiazol-2-yl)acetamide], the DC50 was less than 50 nM.

Take `O=C1CCC(Nc2ccc(N3CCC(O)(CC(=O)N4CC5(C4)CN(c4ccc(-c6ccc7cn(C(C(=O)Nc8nccs8)c8ncn9c8CCC9)nc7c6F)cn4)C5)CC3)cc2F)C(=O)N1` (stereo not shown) [Compound 71, 2-(6,7-dihydro-5H-pyrrolo[1,2-c]imidazol-1-yl)-2-[6-[6-[2-[2-[1-[4-[(2,6-dioxo-3-piperidyl)amino]-3-fluoro-phenyl]-4-hydroxy-4-piperidyl]acetyl]-2,6-diazaspiro[3.3]heptan-6-yl]-3-pyridyl]-7-fluoro-indazol-2-yl]-N-thiazol-2-yl-acetamide]: the DC50 was less than 50 nM.

Consider `O=C1CCC(Nc2ccc(N3CCC(O)(CC(=O)N4CC5(CCN(c6ccc(-c7cc(F)c8c(c7)C(=O)N(C(C(=O)Nc7nccs7)c7ncn9c7CCC9)C8)cc6)CC5)C4)CC3)c(Cl)c2)C(=O)N1` (single isomer, unassigned; isomer 1) [Compound 128, 2-[6-[4-[2-[2-[1-[2-chloro-4-[[2,6-dioxo-3-piperidyl]amino]phenyl]-4-hydroxy-4-piperidyl]acetyl]-2,7-diazaspiro[3.5]nonan-7-yl]phenyl]-4-fluoro-1-oxo-isoindolin-2-yl]-2-(6,7-dihydro-5H-pyrrolo[1,2-c]imidazol-1-yl)-N-thiazol-2-yl-acetamide, isomer 1], for which the DC50 is less than 50 nM.

With `O=C1CCC(Nc2ccc(N3CCC(O)(CC(=O)N4CC5(C4)CN(c4ccc(-c6cc(F)c7c(c6)C(=O)N(C(C(=O)Nc6nccs6)c6ncn8c6CCC8)C7)cc4)C5)CC3)c(F)c2)C(=O)N1` (stereo not shown) [Compound 89, 2-(6,7-dihydro-5H-pyrrolo[1,2-c]imidazol-1-yl)-2-(6-(4-(6-(2-(1-(4-((2,6-dioxopiperidin-3-yl)amino)-2-fluorophenyl)-4-hydroxypiperidin-4-yl)acetyl)-2,6-diazaspiro[3.3]heptan-2-yl)phenyl)-4-fluoro-1-oxoisoindolin-2-yl)-N-(thiazol-2-yl)acetamide], the DC50 is less than 50 nM.

For the compound `O=C1CCN(c2cc(Cl)c(N3CCC(O)(CC(=O)N4CC5(C4)CN(c4ccc(-c6cc(F)c7c(c6)C(=O)N(C(C(=O)Nc6nccs6)c6ncn8c6CCC8)C7)cc4)C5)CC3)c(Cl)c2)C(=O)N1` (stereo not shown) [Compound 169, 2-[6-[4-[2-[2-[1-[2,6-dichloro-4-(2,4-dioxohexahydropyrimidin-1-yl)phenyl]-4-hydroxy-4-piperidyl]acetyl]-2,6-diazaspiro[3.3]heptan-6-yl]phenyl]-4-fluoro-1-oxo-isoindolin-2-yl]-2-(6,7-dihydro-5H-pyrrolo[1,2-c]imidazol-1-yl)-N-thiazol-2-yl-acetamide], the DC50 is less than 50 nM.

Regarding `Cn1nc(N2CCC(=O)NC2=O)c2cc(F)c(C3CCN(CC(=O)N4CC5(C4)CN(c4ccc(-c6cc(F)c7c(c6)C(=O)N(C(C(=O)Nc6nccs6)c6ncn8c6CCC8)C7)cc4)C5)CC3(F)F)cc21` (single isomer, unassigned; isomer 2) [Compound 130, 2-(6,7-dihydro-5H-pyrrolo[1,2-c]imidazol-1-yl)-2-[6-[4-[2-[2-[4-[3-(2,4-dioxohexahydropyrimidin-1-yl)-5-fluoro-1-methyl-indazol-6-yl]-3,3-difluoro-1-piperidyl]acetyl]-2,6-diazaspiro[3.3]heptan-6-yl]phenyl]-4-fluoro-1-oxo-isoindolin-2-yl]-N-thiazol-2-yl-acetamide, isomer 2], the half-maximal degradation concentration (DC50) is less than 50 nM.

As to `Cn1nc(N2CCC(=O)NC2=O)c2ccc(C3CCN(CC(=O)N4C[C@H]5C[C@@H]4CN5c4ccc(-c5cc(F)c6c(c5)C(=O)N(C(C(=O)Nc5nccs5)c5ncn7c5CCC7)C6)cc4)CC3)cc21` (stereo partly drawn) [Compound 82, 2-(6,7-dihydro-5H-pyrrolo[1,2-c]imidazol-1-yl)-2-(6-(4-((1R,4R)-5-(2-(4-(3-(2,4-dioxotetrahydropyrimidin-1(2H)-yl)-1-methyl-1H-indazol-6-yl)piperidin-1-yl)acetyl)-2,5-diazabicyclo[2.2.1]heptan-2-yl)phenyl)-4-fluoro-1-oxoisoindolin-2-yl)-N-(thiazol-2-yl)acetamide], the DC50 is greater than 150 nM.

In the case of `Cn1nc(N2CCC(=O)NC2=O)c2cc(F)c(N3CCC(O)(CC(=O)N4CC5(C4)CN(c4ccc(-c6cc(F)c7c(c6)C(=O)N(C(C(=O)Nc6nccs6)c6ncn8c6CCC8)C7)cc4)C5)CC3)cc21` (stereo not shown) [Compound 127, 2-(6,7-dihydro-5H-pyrrolo[1,2-c]imidazol-1-yl)-2-[6-[4-[2-[2-[1-[3-(2,4-dioxohexahydropyrimidin-1-yl)-5-fluoro-1-methyl-indazol-6-yl]-4-hydroxy-4-piperidyl]acetyl]-2,6-diazaspiro[3.3]heptan-6-yl]phenyl]-4-fluoro-1-oxo-isoindolin-2-yl]-N-thiazol-2-yl-acetamide], the half-maximal degradation concentration (DC50) was less than 50 nM.

`O=C1CC[C@H](Nc2ccc(N3CCC(O)(CC(=O)N4CC5(C4)CN(c4ccc(-c6cc(F)c7cn(C(C(=O)Nc8nccs8)c8ncn9c8CCC9)nc7c6)cn4)C5)CC3)c(F)c2)C(=O)N1` (stereo partly drawn) [Compound 75, 2-(6,7-dihydro-5H-pyrrolo[1,2-c]imidazol-1-yl)-2-[6-[6-[2-[2-[1-[4-[[(3S)-2,6-dioxo-3-piperidyl]amino]-2-fluoro-phenyl]-4-hydroxy-4-piperidyl]acetyl]-2,6-diazaspiro[3.3]heptan-6-yl]-3-pyridyl]-4-fluoro-indazol-2-yl]-N-thiazol-2-yl-acetamide]: the DC50 was less than 50 nM.

As a reminder, the DC50 is the midpoint of the concentration-degradation curve.
